In ChEMBL document CHEMBL1137723, “Non-imidazole histamine H3 ligands, part IV: SAR of 1-[2-thiazol-5-yl-(2-aminoethyl)]-4-n-propylpiperazine derivatives” (Eur J Med Chem, 2009):

What was measured:
Histamine H3 receptor = Histamine H3 receptor (Cavia porcellus, UniProt Q9JI35); test: Antagonist activity at histamine H3 receptor in guinea pig jejunum assessed as electrically evoked contractions; format: functional, tissue-based; details: read-out: pA2 (converted)
Histamine H1 receptor = Histamine H1 receptor (Cavia porcellus, UniProt P31389); test: Antagonist activity at histamine H1 receptor in guinea pig ileum assessed as histamine-induced contractions; format: functional, tissue-based; details: read-out: pA2 (converted)
Chain of Histamine H1 receptor (P31389 whole entry): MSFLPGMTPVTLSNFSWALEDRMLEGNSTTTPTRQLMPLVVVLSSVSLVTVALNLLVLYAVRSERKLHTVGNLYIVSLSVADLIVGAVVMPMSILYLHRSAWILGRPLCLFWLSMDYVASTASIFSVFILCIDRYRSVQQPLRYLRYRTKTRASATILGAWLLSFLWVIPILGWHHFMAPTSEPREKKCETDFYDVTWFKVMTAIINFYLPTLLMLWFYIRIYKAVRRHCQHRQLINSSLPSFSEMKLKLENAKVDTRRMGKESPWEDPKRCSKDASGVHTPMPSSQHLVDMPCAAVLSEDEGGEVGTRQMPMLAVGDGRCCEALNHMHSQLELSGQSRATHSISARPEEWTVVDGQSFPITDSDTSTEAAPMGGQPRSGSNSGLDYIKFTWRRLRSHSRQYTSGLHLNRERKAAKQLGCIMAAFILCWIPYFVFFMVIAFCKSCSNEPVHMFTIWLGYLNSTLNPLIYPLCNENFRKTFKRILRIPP

Chain of Histamine H3 receptor (Q9JI35 whole entry): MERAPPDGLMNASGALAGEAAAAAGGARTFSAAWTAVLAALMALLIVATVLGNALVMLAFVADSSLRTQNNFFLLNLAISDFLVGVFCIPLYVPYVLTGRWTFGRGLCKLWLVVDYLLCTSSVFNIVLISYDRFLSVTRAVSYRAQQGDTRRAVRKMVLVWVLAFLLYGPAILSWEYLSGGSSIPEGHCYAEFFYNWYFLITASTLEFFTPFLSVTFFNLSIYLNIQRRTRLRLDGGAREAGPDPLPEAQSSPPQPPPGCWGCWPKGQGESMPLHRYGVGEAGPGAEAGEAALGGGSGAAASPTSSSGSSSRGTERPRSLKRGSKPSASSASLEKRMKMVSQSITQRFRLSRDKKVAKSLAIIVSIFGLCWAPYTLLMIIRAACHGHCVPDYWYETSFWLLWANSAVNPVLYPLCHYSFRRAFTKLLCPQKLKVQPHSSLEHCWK

## C=CCN1CCN(c2nc3ccccc3s2)CC1
Histamine H3 receptor
  Kb: 79.4 nM

## CCCN1CCN(c2ncc(CCN)s2)CC1
Histamine H3 receptor
  Kb: 64.6 nM

## CCCN1CCN(c2nc3cnccc3[nH]2)CC1
Histamine H3 receptor
  Kb: 56.2 nM

## CCCN1CCN(c2ncc(CCN(C)Cc3ccccc3)s2)CC1
Histamine H1 receptor
  Kb: > 100 µM
Histamine H3 receptor
  Kb: 17.4 nM

## CCCN1CCN(c2ncc(CCN(C)CCCc3ccccc3)s2)CC1
Histamine H1 receptor
  Kb: > 100 µM
Histamine H3 receptor
  Kb: 5.37 nM

## CCCN1CCN(c2ncc(CCN(C)CCCCCc3ccccc3)s2)CC1
Histamine H3 receptor
  Kb: 56.2 nM

## CCCN1CCN(c2ncc(CCNC=O)s2)CC1
Histamine H3 receptor
  Kb: 117 nM

## CCCN1CCN(c2nc3cnccc3o2)CC1
Histamine H3 receptor
  Kb: 126 nM

## CCCN1CCN(c2ncc(CCNC)s2)CC1
Histamine H3 receptor
  Kb: 63.1 nM

## CCCN1CCN(c2ncc(CCN(C)C=O)s2)CC1
Histamine H3 receptor
  Kb: 55 nM

## CCCN1CCN(c2ncc(CCN(C)C)s2)CC1
Histamine H1 receptor
  Kb: > 100 µM
Histamine H3 receptor
  Kb: 16.6 nM

## CCCCC(=O)N(C)CCc1cnc(N2CCN(CCC)CC2)s1
Histamine H3 receptor
  Kb: 95.5 nM

## CCCN1CCN(c2nc3ccccc3s2)CC1
Histamine H3 receptor
  Kb: 69.2 nM

## CCCCCN(C)CCc1cnc(N2CCN(CCC)CC2)s1
Histamine H3 receptor
  Kb: 89.1 nM

## CCCN(C)CCc1cnc(N2CCN(CCC)CC2)s1
Histamine H1 receptor
  Kb: > 100 µM
Histamine H3 receptor
  Kb: 29.5 nM

## CCCN1CCN(c2ncc(CCN(C)C(=O)CC)s2)CC1
Histamine H3 receptor
  Kb: 43.7 nM

## S=C(NC1CCCCC1)N1CCC(c2cnc[nH]2)CC1 [THIOPERAMIDE]
Histamine H3 receptor
  Kb: 0.871 nM
